Results from US20240173317A1, “METHODS FOR TREATING PROGRESSIVE FAMILIAL INTRAHEPATIC CHOLESTASIS” (MIRUM PHARMACEUTICALS, INC., priority 2022, published 2024).

Columns and labels:
subjects with PFIC [1] = assay: Clinician Scratch Scale (CSS) score, MARCH-PFIC Phase 3 study; format: in vivo, human
Text: Clinician Scratch Scale (CSS). The CSS provides an assessment of itch severity. The clinician's assessment of the subject's pruritus focused on scratching and visible damage to the skin as a result of scratching as observed by the physician. The CSS uses a 5-point scale, in which 0 designates no evidence of scratching and 4 designates cutaneous mutilation with bleeding, hemorrhage and scarring. A clinician's assessment of pruritus made by the principal investigator or sub-investigator using the CSS was recorded at screening, baseline, and at additional study visits as outline in Table 2.
For the PFIC Cohort, PFIC Type is included in the model as an additional covariate.
Clinician Scratch Scale (CSS) was scored on a 0-4 scale, where 0=none and 4=cutaneous mutilations, haemorrage, and scarring (worst scratching).

[2] = Height and weight Z-score, MARCH-PFIC Phase 3 study; format: in vivo, human; details: BSEP deficiency group and PFIC group vs placebo
subjects with PFIC [3] = assay: Total and direct bilirubin, MARCH-PFIC Phase 3 study
Text: Estimates are from a mixed model for repeated measures (MMRM) with change from baseline as the dependent variable and fixed categorical effects of treatment group, time period and treatment-by-time period interaction as well as the continuous fixed covariates of average baseline score and baseline score-by-time period interaction. […] Average of time periods Weeks 15-18, 19-22, and 2326 obtained from the MMRM as an equally weighted average of the 3 individual visit-specific estimates.
Methods: MARCH enrolled patients with a genetic diagnosis of PFIC, pruritus, and elevated sBA. Patients were randomized to MRX 57011 g/kg BID or placebo (PBO) for 26 weeks. Changes were determined as the difference between MRX and PBO groups for Change from Baseline (CFB) to the average of the final 3 measurements (Weeks 18, 22 and 26) using a mixed-effects model with recurrent measurements. Total/direct bilirubin (TB/DB) categories were defined as normal (≤1.2/0.3 mg/dL) or abnormal (>1.2/0.3 mg/dL).

participants with ALGS = assay: TEAEs in participants with ALGS aged 16 years and older; format: in vivo, human
Text: The efficacy and safety of MRX in participants with ALGS aged ≥16 years transitioning to adult care and participant aged ≥16 years who initiate MRX treatment were studied (FIG. 30). The median (min, max) duration of therapy for participants who initiated MRX at <16 years of age was 4.1 years (1.5, 5.9), with the oldest patient taking MRX (Table 13). Three participants began MRX at ≥16 years of age and were followed for a median of 3.8 years.

[4] = BSEP deficiency cohort, FIG. 19A
[5] = BSEP deficiency cohort, FIG. 20A
[6] = BSEP deficiency cohort, FIG. 22A
[7] = MRX group, post-hoc analysis, FIG. 38A-B
[8] = individuals with abnormal Baseline bilirubin, FIG. 37B
[9] = ALGS, aged <16 y at MRX initiation (n = 11), After 16 y
[10] = ALGS, aged <16 y at MRX initiation (n = 11), Before 16 y
[11] = ALGS, aged >16 y at MRX initiation (n = 3)

In the case of CCCCC1(CCCC)CS(=O)(=O)c2ccc(N(C)C)cc2[C@@H](c2ccc(OCc3ccc(C[N+]45CCN(CC4)CC5)cc3)cc2)[C@H]1O [maralixibat, 1-(4-((4-((4R,5R)-3,3-dibutyl-7-(dimethylamino)-4-hydroxy-1,1-dioxido-2,3,4,5-tetrahydrobenzo[b]thiepin-5-yl)phenoxy)methyl)benzyl)-1,4-diazabicyclo[2.2.2]octan-1-ium], the “difference in CSS improvement vs placebo group” value (subjects with PFIC [1]; [4]) is reported as 1.328 point, the “improvement in CSS score relative to baseline” value (subjects with PFIC [1]; [4]) is reported as “about 1.7 points” and the “difference in CSS improvement vs placebo group” value (subjects with PFIC [1]; PFIC cohort, FIG. 19B) is reported as 1.247 point. For the same compound, the “improvement in CSS score relative to baseline” value (subjects with PFIC [1]; PFIC cohort, FIG. 19B) was “about 1.8 points”, the “change of participant height Z-score over time” value ([2]; FIG. 24A-C) was “overall positive trend for increase” and the “change of participant weight Z-score over time” value ([2]; FIG. 25A-C) was “gained significantly more weight over time than placebo participants”. For the same compound, the “CFB in total bilirubin (TB)” value (subjects with PFIC [3]; All-PFIC cohort (MRX n = 33), average of Weeks 18, 22 and 26, FIG. 36A) was -1.1 mg/dL, the “CFB in direct bilirubin (DB)” value (subjects with PFIC [3]; All-PFIC cohort (MRX n = 33), average of Weeks 18, 22 and 26, FIG. 36B) was -0.8 mg/dL and the “TB group difference MRX vs PBO” value (subjects with PFIC [3]; All-PFIC cohort, average of Weeks 18, 22 and 26, FIG. 36A) was 2.0. For the same compound, the “DB group difference MRX vs PBO” value (subjects with PFIC [3]; All-PFIC cohort, average of Weeks 18, 22 and 26, FIG. 36B) was 1.5, the “difference in total bilirubin improvement vs placebo group” value (subjects with PFIC [3]; [5]) was 1.585 mg/dL and the “improvement in (reduction of) total bilirubin relative to baseline” value (subjects with PFIC [3]; [5]) was “about 1.2 mg/dL”. The “difference in direct bilirubin improvement vs placebo group” value (subjects with PFIC [3]; [6]) was 1.196 mg/dL, the “improvement in (reduction of) direct bilirubin relative to baseline” value (subjects with PFIC [3]; [6]) was “over 0.8 mg/dL” and the “TB normalized, patients / patients with abnormal Baseline values” (subjects with PFIC [3]; [7]) was 10/25. For the same compound, the “patients who went from normal to abnormal TB” value (subjects with PFIC [3]; [7]) was 0/7, the “DB frequency of normalization” value (subjects with PFIC [3]; MRX group, post-hoc analysis, normal ≤0.3 mg/dL, FIG. 39) was 38% and the “TB normalized, % of patients with abnormal Baseline values” (subjects with PFIC [3]; MRX group, post-hoc analysis, normal ≤1.2 mg/dL, FIG. 38A-B) was 40%. The “difference in total bilirubin improvement vs placebo group” value (subjects with PFIC [3]; PFIC cohort, FIG. 20B) was 2.000 mg/dL, the “improvement in (reduction of) total bilirubin relative to baseline” value (subjects with PFIC [3]; PFIC cohort, FIG. 20B) was “about 1.2 mg/dL” and the “difference in direct bilirubin improvement vs placebo group” value (subjects with PFIC [3]; PFIC cohort, FIG. 22B) was 1.608 mg/dL. The “improvement in (reduction of) direct bilirubin relative to baseline” value (subjects with PFIC [3]; PFIC cohort, FIG. 22B) was “about 0.9 mg/dL”, the “total bilirubin lower than baseline over time” value (subjects with PFIC [3]; Week 18 and later points in time, FIG. 21A-B) was “at least 1.0 mg/dL” and the “direct bilirubin lower than baseline over time” value (subjects with PFIC [3]; Week 18 and later points in time, FIG. 23A-B) was “at least 1.0 mg/dL”. For the same compound, the “CFB in direct bilirubin (DB)” value (subjects with PFIC [3]; [8]) was -0.8 mg/dL, the “DB group difference MRX vs PBO” value (subjects with PFIC [3]; [8]) was −1.8 and the tolerability (participants with ALGS; ALGS participants aged 16 years and older) was “generally well tolerated”. The “Any TEAEs, %” value (participants with ALGS; [9]) was “(63.6) %”, the “Gastrointestinal TEAEs: Abdominal pain, %” value (participants with ALGS; [9]) was “(18.2) %” and the “Gastrointestinal TEAEs: Diarrhoea, %” value (participants with ALGS; [9]) was “(9.1) %”. For the same compound, the “SAEs, %” value (participants with ALGS; [9]) was “(9.1) %”, the “TEAEs > grade 3, %” value (participants with ALGS; [9]) was “(9.1) %” and the “Treatment-related AEs, %” value (participants with ALGS; [9]) was “(18.2) %”. For the same compound, the “Any TEAEs, %” value (participants with ALGS; [10]) was “(100) %”, the “Gastrointestinal TEAEs: Abdominal pain, %” value (participants with ALGS; [10]) was “(45.5) %” and the “Gastrointestinal TEAEs: Diarrhoea, %” value (participants with ALGS; [10]) was “(54.5) %”. The “SAEs, %” value (participants with ALGS; [10]) was “(18.2) %”, the “TEAEs > grade 3, %” value (participants with ALGS; [10]) was “(9.1) %” and the “Treatment-related AEs, %” value (participants with ALGS; [10]) was “(81.8) %”. For the same compound, the “Any TEAEs, %” value (participants with ALGS; [11]) was “(100) %”, the “Gastrointestinal TEAEs: Diarrhoea, %” value (participants with ALGS; [11]) was “(33.3) %” and the “TEAEs > grade 3, %” value (participants with ALGS; [11]) was “(33.3) %”. For the same compound, the “Treatment-related AEs ≥ grade 3, %” value (participants with ALGS; [11]) was “(33.3) %” and the “Treatment-related AEs, %” value (participants with ALGS; [11]) was “(66.7) %”.
